Laboratory results as given in patent publication US20230139171A1 (SITA Information Networking Computing UK Limited, priority 2019, published 2023).

What was measured:
Type in all cases: cell-based
human TLR7 = target: T1, human TLR7 (Homo sapiens, UniProt Q9NYK1); assay: TLR7 inhibition reporter assay (HEK-Blue cells, SEAP reporter, gardiquimod stimulation); details: HEK-Blue cells overexpressing human TLR7, SEAP reporter, gardiquimod 7.5 μM; read-out: TLR7 IC50
T1 construct: host or cells: HEK-Blue cells
T1 sequence (Q9NYK1 27-1049): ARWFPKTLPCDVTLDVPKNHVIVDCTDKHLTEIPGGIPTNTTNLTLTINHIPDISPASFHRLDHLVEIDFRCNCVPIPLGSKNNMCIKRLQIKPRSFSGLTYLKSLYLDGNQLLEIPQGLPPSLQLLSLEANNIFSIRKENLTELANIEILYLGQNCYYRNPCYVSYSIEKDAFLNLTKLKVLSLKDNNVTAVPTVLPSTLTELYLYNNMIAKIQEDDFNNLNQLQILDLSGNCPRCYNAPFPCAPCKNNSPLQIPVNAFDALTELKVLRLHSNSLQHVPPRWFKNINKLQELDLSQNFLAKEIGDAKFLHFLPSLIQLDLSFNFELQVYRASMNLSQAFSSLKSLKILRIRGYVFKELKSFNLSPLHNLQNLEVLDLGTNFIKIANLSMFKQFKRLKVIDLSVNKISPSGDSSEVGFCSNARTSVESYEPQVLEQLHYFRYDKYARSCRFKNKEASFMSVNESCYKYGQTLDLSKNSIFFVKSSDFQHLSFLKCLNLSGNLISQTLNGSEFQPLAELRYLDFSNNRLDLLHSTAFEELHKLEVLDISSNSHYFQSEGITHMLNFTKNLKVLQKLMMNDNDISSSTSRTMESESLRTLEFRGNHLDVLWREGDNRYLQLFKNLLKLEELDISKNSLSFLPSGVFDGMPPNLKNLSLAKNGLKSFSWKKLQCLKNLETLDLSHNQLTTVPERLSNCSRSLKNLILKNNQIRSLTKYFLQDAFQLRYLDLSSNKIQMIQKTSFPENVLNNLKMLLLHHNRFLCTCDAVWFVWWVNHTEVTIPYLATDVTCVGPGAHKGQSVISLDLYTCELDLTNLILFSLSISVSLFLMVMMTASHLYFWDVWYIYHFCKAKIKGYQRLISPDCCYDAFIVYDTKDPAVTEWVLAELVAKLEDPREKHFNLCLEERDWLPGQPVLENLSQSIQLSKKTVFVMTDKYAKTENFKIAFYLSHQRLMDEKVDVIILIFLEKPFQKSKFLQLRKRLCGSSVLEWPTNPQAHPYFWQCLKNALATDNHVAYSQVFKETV
How it was run: (§1)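 HEK-Blue cells overexpressing human TLR7, TLR8 or TLR9 carry a SEAP reporter driven by NF-κB/AP-1 sites. Compounds (0.05 nM–50 μM) were preincubated 30 min at room temperature, then cells were stimulated with gardiquimod 7.5 μM (TLR7), R848 15.9 μM (TLR8) or ODN2006 5 nM (TLR9) for 22 h at 37 °C.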

human TLR9 = target: T2, human TLR9 (Homo sapiens, UniProt Q9NR96); assay: TLR9 inhibition reporter assay (HEK-Blue cells, SEAP reporter, ODN2006 stimulation); details: HEK-Blue cells overexpressing human TLR9, SEAP reporter, ODN2006 5 nM
T2 construct: host or cells: HEK-Blue cells
T2 sequence (Q9NR96 26-1032): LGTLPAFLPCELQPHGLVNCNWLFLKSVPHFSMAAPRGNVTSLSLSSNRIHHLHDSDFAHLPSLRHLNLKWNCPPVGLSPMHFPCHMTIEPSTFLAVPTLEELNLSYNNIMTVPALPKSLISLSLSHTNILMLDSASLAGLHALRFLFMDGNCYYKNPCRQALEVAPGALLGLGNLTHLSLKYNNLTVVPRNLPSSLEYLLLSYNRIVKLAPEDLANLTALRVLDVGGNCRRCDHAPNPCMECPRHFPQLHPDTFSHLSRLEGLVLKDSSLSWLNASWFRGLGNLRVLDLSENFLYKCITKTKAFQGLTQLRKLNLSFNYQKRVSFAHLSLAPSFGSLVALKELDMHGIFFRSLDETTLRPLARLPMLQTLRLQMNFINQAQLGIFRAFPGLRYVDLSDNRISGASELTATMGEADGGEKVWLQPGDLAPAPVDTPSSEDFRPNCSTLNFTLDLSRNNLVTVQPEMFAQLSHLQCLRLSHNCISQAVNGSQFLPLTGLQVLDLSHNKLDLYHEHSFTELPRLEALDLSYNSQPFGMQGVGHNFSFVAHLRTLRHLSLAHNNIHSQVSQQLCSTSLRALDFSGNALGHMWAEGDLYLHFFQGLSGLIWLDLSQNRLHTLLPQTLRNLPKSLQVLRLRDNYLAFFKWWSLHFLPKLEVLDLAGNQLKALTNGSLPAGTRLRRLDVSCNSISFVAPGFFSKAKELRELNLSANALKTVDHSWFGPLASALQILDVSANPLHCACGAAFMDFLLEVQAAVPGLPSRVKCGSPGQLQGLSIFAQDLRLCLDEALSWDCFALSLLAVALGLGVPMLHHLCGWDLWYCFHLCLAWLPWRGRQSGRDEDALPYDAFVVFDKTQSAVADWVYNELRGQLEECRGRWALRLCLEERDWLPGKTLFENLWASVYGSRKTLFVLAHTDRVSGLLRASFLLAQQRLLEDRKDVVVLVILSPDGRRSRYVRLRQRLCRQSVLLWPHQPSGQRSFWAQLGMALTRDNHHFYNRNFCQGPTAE
How it was run: as §1

human TLR8 = target: T3, human TLR8 (Homo sapiens, UniProt Q9NR97); assay: TLR8 inhibition reporter assay (HEK-Blue cells, SEAP reporter, R848 stimulation); details: HEK-Blue cells overexpressing human TLR8, SEAP reporter, R848 15.9 μM; read-out: TLR8 IC50
T3 construct: host or cells: HEK-Blue cells
T3 sequence (Q9NR97 27-1041): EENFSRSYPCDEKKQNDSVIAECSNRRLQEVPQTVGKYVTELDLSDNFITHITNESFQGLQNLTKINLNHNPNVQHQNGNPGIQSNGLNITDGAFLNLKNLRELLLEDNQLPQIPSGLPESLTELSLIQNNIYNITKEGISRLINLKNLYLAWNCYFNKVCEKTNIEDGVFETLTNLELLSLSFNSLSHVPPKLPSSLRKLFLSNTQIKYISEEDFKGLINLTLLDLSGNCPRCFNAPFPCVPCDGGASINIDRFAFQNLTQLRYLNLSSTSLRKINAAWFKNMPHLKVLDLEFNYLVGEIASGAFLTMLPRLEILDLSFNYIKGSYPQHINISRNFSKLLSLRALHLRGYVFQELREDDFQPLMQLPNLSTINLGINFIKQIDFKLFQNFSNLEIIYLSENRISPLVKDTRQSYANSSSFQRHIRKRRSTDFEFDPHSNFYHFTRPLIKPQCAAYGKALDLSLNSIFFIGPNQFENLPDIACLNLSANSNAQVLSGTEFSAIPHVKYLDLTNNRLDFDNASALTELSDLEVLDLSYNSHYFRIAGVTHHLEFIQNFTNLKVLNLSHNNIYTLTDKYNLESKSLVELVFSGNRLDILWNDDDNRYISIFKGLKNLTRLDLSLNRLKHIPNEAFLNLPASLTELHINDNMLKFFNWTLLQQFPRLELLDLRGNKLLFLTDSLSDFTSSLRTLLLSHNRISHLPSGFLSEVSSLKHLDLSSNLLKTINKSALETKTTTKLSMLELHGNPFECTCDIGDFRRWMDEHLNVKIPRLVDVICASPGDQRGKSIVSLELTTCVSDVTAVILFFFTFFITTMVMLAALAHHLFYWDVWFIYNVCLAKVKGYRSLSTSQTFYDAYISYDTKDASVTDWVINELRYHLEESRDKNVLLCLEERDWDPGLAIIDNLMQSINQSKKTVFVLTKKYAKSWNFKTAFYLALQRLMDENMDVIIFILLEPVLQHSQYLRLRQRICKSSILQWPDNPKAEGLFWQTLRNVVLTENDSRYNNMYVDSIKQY
How it was run: as §1

Row | SMILES | IC50 (human TLR7) [nM] | IC50 (human TLR9) [nM] | IC50 (human TLR8) [nM]
1 | COc1cc(-c2[nH]c3sc(C4CCC(N5CC(OC)C5)CC4)nc3c2C(C)C)cn2ncnc12 (single isomer, unassigned) [Example 123, 6-isopropyl-5-(8-methoxy-[1,2,4]triazolo[1,5-a]pyridin-6-yl)-2-(4-(3-methoxyazetidin-1-yl)cyclohexyl)-4H-pyrrolo[3,2-d]thiazole] | 5.09 | 6290 | 16.8
2 | Cc1cc(-c2[nH]c3sc(C4CCC(NC5COC5)CC4)nc3c2C(C)C)cn2ncnc12 (single isomer, unassigned) [Example 130, N-(4-(6-isopropyl-5-(8-methyl-[1,2,4]triazolo[1,5-a]pyridin-6-yl)-4H-pyrrolo[3,2-d]thiazol-2-yl)cyclohexyl)oxetan-3-amine] | 0.45 | 11500 | 2.42
3 | Cc1cc(-c2[nH]c3sc(C4CCC(NCC5(C)COC5)CC4)nc3c2C(C)C)cn2ncnc12 (single isomer, unassigned) [Example 134, 4-(6-isopropyl-5-(8-methyl-[1,2,4]triazolo[1,5-a]pyridin-6-yl)-4H-pyrrolo[3,2-d]thiazol-2-yl)-N-((3-methyloxetan-3-yl)methyl)cyclohexan-1-amine] | 1.23 | 16100 | 1.28
4 | Cc1cc(-c2[nH]c3sc(C4CCC(NCC5(C)COC5)CC4)nc3c2C(C)C)cn2ncnc12 (single isomer, unassigned) [Example 135, 4-(6-isopropyl-5-(8-methyl-[1,2,4]triazolo[1,5-a]pyridin-6-yl)-4H-pyrrolo[3,2-d]thiazol-2-yl)-N-((3-methyloxetan-3-yl)methyl)cyclohexan-1-amine] | 6.8 | 22400 | 38.9
5 | Cc1cc(-c2[nH]c3sc(C4CCC(N5CC6(COC6)C5)CC4)nc3c2C(C)C)cn2ncnc12 (single isomer, unassigned) [Example 137, 6-(4-(6-isopropyl-5-(8-methyl-[1,2,4]triazolo[1,5-a]pyridin-6-yl)-4H-pyrrolo[3,2-d]thiazol-2-yl)cyclohexyl)-2-oxa-6-azaspiro[3.3]heptane] | 3.4 | 6730 | 40.8

More lines, now with the values ahead:

Row | IC50 (human TLR7) [nM] | IC50 (human TLR9) [nM] | IC50 (human TLR8) [nM] | SMILES
6 | 1.95 | 9250 | 3.34 | COc1cc(-c2[nH]c3sc(C4CCC(N5CC(OC)C5)CC4)nc3c2C(C)C)cn2ncnc12 (single isomer, unassigned) [Example 122, 6-isopropyl-5-(8-methoxy-[1,2,4]triazolo[1,5-a]pyridin-6-yl)-2-(4-(3-methoxyazetidin-1-yl)cyclohexyl)-4H-pyrrolo[3,2-d]thiazole]
7 | 5.8 | 5400 | 25.9 | COc1cc(-c2[nH]c3sc(C4CCC(N(C)C5COC5)CC4)nc3c2C(C)C)cn2ncnc12 (single isomer, unassigned) [Example 125, N-(4-(6-isopropyl-5-(8-methoxy-[1,2,4]triazolo[1,5-a]pyridin-6-yl)-4H-pyrrolo[3,2-d]thiazol-2-yl)cyclohexyl)-N-methyloxetan-3-amine]
8 | 7.48 | 10900 | 32.6 | Cc1cc(-c2[nH]c3sc(C4CCC(NC5COC5)CC4)nc3c2C(C)C)cn2ncnc12 (single isomer, unassigned) [Example 131, N-(4-(6-isopropyl-5-(8-methyl-[1,2,4]triazolo[1,5-a]pyridin-6-yl)-4H-pyrrolo[3,2-d]thiazol-2-yl)cyclohexyl)oxetan-3-amine]
9 | 0.36 | 2140 | 2.73 | CCN(C)C1CCC(c2nc3c(C(C)C)c(-c4cc(C)c5ncnn5c4)[nH]c3s2)CC1 (single isomer, unassigned) [Example 132, N-ethyl-4-(6-isopropyl-5-(8-methyl-[1,2,4]triazolo[1,5-a]pyridin-6-yl)-4H-pyrrolo[3,2-d]thiazol-2-yl)-N-methylcyclohexan-1-amine]
10 | 1.69 | 42800 | 4.36 | Cc1cc(-c2[nH]c3sc(C4CCC(N5CC6(COC6)C5)CC4)nc3c2C(C)C)cn2ncnc12 (single isomer, unassigned) [Example 136, 6-(4-(6-isopropyl-5-(8-methyl-[1,2,4]triazolo[1,5-a]pyridin-6-yl)-4H-pyrrolo[3,2-d]thiazol-2-yl)cyclohexyl)-2-oxa-6-azaspiro[3.3]heptane]
11 | 0.93 | 14800 | 3.96 | Cc1cc(-c2[nH]c3sc(C4CCC(NC56CC(C5)C6)CC4)nc3c2C(C)C)cn2ncnc12 (single isomer, unassigned) [Example 138, N-(4-(6-isopropyl-5-(8-methyl-[1,2,4]triazolo[1,5-a]pyridin-6-yl)-4H-pyrrolo[3,2-d]thiazol-2-yl)cyclohexyl)bicyclo[1.1.1]pentan-1-amine]
